# Experimental data reported in US10138233B2, “Imidazole compounds as modulators of FSHR and uses thereof” (Merck Patent GmbH, priority 2013, dated 2018).
# Molecular target: T1, FSHR (Homo sapiens, UniProt P23945)
# T1 construct: expressed in transfected cells; host or cells: CHO cells, clone Cho-FSHR-LUC-1-1-43
# T1 sequence (P23945 18-695): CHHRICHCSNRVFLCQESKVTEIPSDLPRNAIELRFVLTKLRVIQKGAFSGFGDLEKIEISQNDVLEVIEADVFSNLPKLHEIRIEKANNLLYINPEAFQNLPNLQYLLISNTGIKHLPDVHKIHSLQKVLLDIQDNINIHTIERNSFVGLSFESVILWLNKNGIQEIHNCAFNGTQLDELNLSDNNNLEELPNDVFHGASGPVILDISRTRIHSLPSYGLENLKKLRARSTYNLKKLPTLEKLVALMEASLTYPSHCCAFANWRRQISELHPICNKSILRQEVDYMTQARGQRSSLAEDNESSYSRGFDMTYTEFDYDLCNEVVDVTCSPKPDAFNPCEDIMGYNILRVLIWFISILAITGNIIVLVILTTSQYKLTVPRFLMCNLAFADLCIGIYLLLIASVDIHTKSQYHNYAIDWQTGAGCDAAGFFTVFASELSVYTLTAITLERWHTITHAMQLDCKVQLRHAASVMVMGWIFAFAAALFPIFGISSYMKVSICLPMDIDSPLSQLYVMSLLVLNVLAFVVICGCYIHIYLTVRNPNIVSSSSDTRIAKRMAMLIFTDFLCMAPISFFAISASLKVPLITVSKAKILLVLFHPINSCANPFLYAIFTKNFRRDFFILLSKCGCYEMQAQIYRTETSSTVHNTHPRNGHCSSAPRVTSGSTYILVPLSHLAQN
# Assay: EC50 of cyclic AMP production in CHO FSHR cells + EC20 FSH (Assay A)
# Format: cell-based
# Settings: CHO-FSHR-LUC cells, in presence of EC20 FSH, cAMP HTRF, 1 h 37° C.
# Description: EC50 of cyclic AMP production in CHO FSHR cells+EC20 FSH (Assay A)
# 2500 Cho-FSHR-LUC-1-1-43 cells were plated per well in 5 μl of phenol red free DMEM/F12+1% FBS. […] Cells were assayed by adding 100 μl of 2×EC20 FSH/IBMX in DMEM/F12+0.1% BSA) by Multidrop to 2 μl of test compound stamped in 384 well plates (compounds are diluted 1:50). […] The compound plate map was as follows: Column 1: 2 μl of DMSO; Column 2: 2 μl of DMSO; Columns 3-12 and 13-24: 2 μl of test compound, diluted 1:4 in 100% DMSO, or 2 μl of FSH, diluted 1:4 in DMEM/F12+0.1% BSA. The starting concentration for FSH was 50 nM (final concentration was 0.5 nM). […] 10 μl of mixed HTRF (CisBio #62AM4PEC) reagents were added per well and incubated at room temperature for 1 h. The plates were read on Envision using the cAMP HTRF—low volume 384 well protocol. […] Values given in percent (%) indicate the percental effect (response) at a certain concentration of agonist relative to the maximum response of the FSH standard.
row,SMILES,EC50
1,COc1cc2c(cc1OC(C)C)-n1c(-c3c(C)nn(C)c3C)nc(C(=O)N3CCOCC3(C)C)c1CC2 [Compound 37],> 5000 nM
2,COc1cc2c(cc1OC(C)C)-n1c(-c3cc(F)c(F)c(Cl)c3)nc(C(=O)N3CCOCC3(C)C)c1CC2 [Compound 122],100 to 1000 nM
3,"COC(=O)c1nc(C(=O)N2CCOCC2(C)C)c2n1-c1cc(OC(C)C)c(OC)cc1CC2 [Compound 144, 3-(3,3-Dimethyl-morpholine-4-carbonyl)-8-isopropoxy-7-methoxy-4,5-dihydro-imidazo[1,5-a]quinoline-1-carboxylic acid methyl ester]",1000 to 5000 nM
4,"COc1cc2c(cc1-c1ccn(C)n1)-n1c(-c3ccn(C)c3)nc(C(=O)N3CCOCC3(C)C)c1CC2 [Compound 73, (3,3-Dimethyl-morpholin-4-yl)-[7-methoxy-8-(1-methyl-1H-pyrazol-3-yl)-1-(1-methyl-1H-pyrrol-3-yl)-4,5-dihydro-imidazo[1,5-a]quinolin-3-yl]-methanone]",> 5000 nM
5,COc1cc2c(cc1OC(C)C)-n1c(-c3cncs3)nc(C(=O)N3CCCN(C(=O)N4CCC4)CC3)c1CC2 [Compound 9],1000 to 5000 nM
6,"COc1cc2c(cc1OC(C)C)-n1c(Br)nc(C(=O)N(C)C(C)(C)C)c1CC2 [Compound 4, 1-Bromo-8-isopropoxy-7-methoxy-4,5-dihydro-imidazo[1,5-a]quinoline-3-carboxylic acid tert-butyl-methyl-amide]",> 5000 nM
7,COc1cc2c(cc1OC(C)C)-n1c(-c3ccccc3OC)nc(C(=O)N(C)C(C)(C)C)c1CC2 [Compound 62],1000 to 5000 nM
8,"COc1cc2c(cc1-c1n[nH]c(=S)o1)-n1c(-c3cccs3)nc(C(=O)N(C)C(C)(C)C)c1CC2 [Compound 133, 7-Methoxy-1-thiophen-2-yl-8-(5-thioxo-4,5-dihydro-[1,3,4]oxadiazol-2-yl)-4,5-dihydro-imidazo[1,5-a]quinoline-3-carboxylic acid tert-butyl-methyl-amide]",< 100 nM
9,COC/C=C/c1nc(C(=O)N2CCOCC2(C)C)c2n1-c1cc(OC(C)C)c(OC)cc1CC2 [Compound 51],1000 to 5000 nM
10,"COc1cc2c(cc1-c1n[nH]c(=O)o1)-n1c(-c3cccs3)nc(C(=O)N(C)C(C)(C)C)c1CC2 [Compound 132, 7-Methoxy-8-(5-oxo-4,5-dihydro-[1,3,4]oxadiazol-2-yl)-1-thiophen-2-yl-4,5-dihydro-imidazo[1,5-a]quinoline-3-carboxylic acid tert-butyl-methyl-amide]",100 to 1000 nM
11,"COc1cc2c(cc1OC(C)C)-n1c(-c3cccs3)nc(C(=O)NC3(CO)COC3)c1CO2 [Compound 137, 8-Isopropoxy-7-methoxy-1-thiophen-2-yl-4H-5-oxa-2,9b-diaza-cyclopenta[a]naphthalene-3-carboxylic acid (3-hydroxymethyl-oxetan-3-yl)-amide]",1000 to 5000 nM
12,"COc1cc2c(cc1OC(C)C)-n1c(-c3cccs3)nc(C(=O)NC3(C)COC3)c1CO2 [Compound 138, 8-Isopropoxy-7-methoxy-1-thiophen-2-yl-4H-5-oxa-2,9b-diaza-cyclopenta[a]naphthalene-3-carboxylic acid (3-methyl-oxetan-3-yl)-amide]",1000 to 5000 nM
13,COc1cc2c(cc1OC(C)C)-n1c(-c3ccc(F)c(C(F)(F)F)c3)nc(C(=O)N3CCOCC3(C)C)c1CC2 [Compound 111],1000 to 5000 nM
14,"COc1cc2c(cc1CC(C)C)-n1c(-c3sccc3C)nc(C(=O)N(C)C(C)(C)C)c1CC2 [Compound 146, 8-Isobutyl-7-methoxy-1-(3-methyl-thiophen-2-yl)-4,5-dihydro-imidazo[1,5-a]quinoline-3-carboxylic acid tert-butyl-methyl-amide]",100 to 1000 nM
15,"COc1cc2c(cc1CC(C)C)-n1c(-c3cn[nH]c3)nc(C(=O)N(C)C(C)(C)C)c1CC2 [Compound 23, 8-Isobutyl-7-methoxy-1-(1H-pyrazol-4-yl)-4,5-dihydro-imidazo[1,5-a]quinoline-3-carboxylic acid tert-butyl-methyl-amide]",1000 to 5000 nM

# More lines, now with the values ahead:
row,EC50,SMILES
1,1000 to 5000 nM,COc1cc2c(cc1OC(C)C)-n1c(-c3cc(Cl)ccc3OC)nc(C(=O)N3CCOCC3(C)C)c1CC2 [Compound 105]
2,> 5000 nM,COc1cc2c(cc1OC(C)C)-n1c(C3=CCCN(C)C3)nc(C(=O)N3CCOCC3(C)C)c1CC2 [Compound 93]
3,< 100 nM,COc1cc2c(cc1OC(C)C)-n1c(-c3cscc3C)nc(C(=O)N3CCOCC3(C)C)c1CC2 [Compound 120]
4,> 5000 nM,"[2H]C([2H])([2H])OC1CCN(C(=O)c2nc(-c3cccs3)n3c2CCc2cc(OC)c(CC(C)C)cc2-3)C1 (stereo not drawn) [Compound 33, (8-Isobutyl-7-methoxy-1-thiophen-2-yl-4,5-dihydro-imidazo[1,5-a]quinolin-3-yl)-(3-methoxy-d3-pyrrolidin-1-yl)-methanone]"
5,> 5000 nM,COc1cc2c(cc1OC(C)C)-n1c(-c3cn[nH]c3)nc(C(=O)N3CCOCC3(C)C)c1CC2 [Compound 61]
6,> 5000 nM,"COc1cc2c(cc1OC(C)C)-n1c(C#N)nc(C(=O)N3CCOCC3(C)C)c1CC2 [Compound 145, 3-(3,3-Dimethyl-morpholine-4-carbonyl)-8-isopropoxy-7-methoxy-4,5-dihydro-imidazo[1,5-a]quinoline-1-carbonitrile]"
7,> 5000 nM,COc1cc2c(cc1OC(C)C)-n1c(-c3cccc4c3OCCO4)nc(C(=O)N3CCOCC3(C)C)c1CC2 [Compound 121]
8,> 5000 nM,COc1ccc(-c2nc(C(=O)N3CCOCC3(C)C)c3n2-c2cc(OC(C)C)c(OC)cc2CC3)cc1F [Compound 118]
9,1000 to 5000 nM,"COc1cc2c(cc1CC(C)C)-n1c(-c3cccs3)nc(C(=O)NC(C)(C)CO)c1CC2 [Compound 24, 8-Isobutyl-7-methoxy-1-thiophen-2-yl-4,5-dihydro-imidazo[1,5-a]quinoline-3-carboxylic acid (2-hydroxy-1,1-dimethyl-ethyl)-amide]"
10,1000 to 5000 nM,COc1cc2c(cc1OC(C)C)-n1c(C3=CCC(C)CC3)nc(C(=O)N3CCOCC3(C)C)c1CC2 (stereo not drawn) [Compound 86]
11,100 to 1000 nM,COc1cc2c(cc1OC(C)C)-n1c(-c3cc(C)nn3C)nc(C(=O)N3CCOCC3(C)C)c1CC2 [Compound 42]
12,1000 to 5000 nM,COc1cc2c(cc1OC(C)C)-n1c(-c3[nH]ncc3C)nc(C(=O)N3CCOCC3(C)C)c1CC2 [Compound 54]
13,100 to 1000 nM,"COc1cc2c(cc1CC(C)C)-n1c(-c3ccn(C)n3)nc(C(=O)N3CCOCC3(C)C)c1CC2 [Compound 29, (3,3-Dimethyl-morpholin-4-yl)-[8-isobutyl-7-methoxy-1-(1-methyl-1H-pyrazol-3-yl)-4,5-dihydro-imidazo[1,5-a]quinolin-3-yl]-methanone]"
14,100 to 1000 nM,COc1cc2c(cc1OC(C)C)-n1c(-c3cncnc3)nc(C(=O)N3CCOCC3(C)C)c1CC2 [Compound 45]
15,1000 to 5000 nM,COc1ccc(-c2nc(C(=O)N3CCOCC3(C)C)c3n2-c2cc(OC(C)C)c(OC)cc2CC3)c(C)c1 [Compound 128]
16,100 to 1000 nM,COc1cc2c(cc1OC(C)C)-n1c(-c3sc(C)cc3C)nc(C(=O)N3CCOCC3(C)C)c1CC2 [Compound 99]
17,< 100 nM,COc1cc2c(cc1OC(C)C)-n1c(C3=CCCC3(C)C)nc(C(=O)N3CCOCC3(C)C)c1CC2 [Compound 100]
18,> 5000 nM,COc1cc2c(cc1OC(C)C)-n1c(-c3cncn3C)nc(C(=O)N3CCOCC3(C)C)c1CC2 [Compound 47]
19,100 to 1000 nM,COc1cc2c(cc1OC(C)C)-n1c(-c3ccc(C)c(F)c3)nc(C(=O)N3CCOCC3(C)C)c1CC2 [Compound 126]
20,< 100 nM,"COc1cc2c(cc1CC(C)C)-n1c(-c3cccs3)nc(C(=O)N3CCOCC3(C)C)c1CC2 [Compound 20, (3,3-Dimethyl-morpholin-4-yl)-(8-isobutyl-7-methoxy-1-thiophen-2-yl-4,5-dihydro-imidazo[1,5-a]quinolin-3-yl)-methanone]"
21,100 to 1000 nM,"COc1cc2c(cc1-c1ccn(C)n1)-n1c(-c3ccc(C)s3)nc(C(=O)N3CCOCC3(C)C)c1CC2 [Compound 147, (3,3-dimethylmorpholino)(7-methoxy-8-(1-methyl-1H-pyrazol-3-yl)-1-(5-methylthiophen-2-yl)-4,5-dihydroimidazo[1,5-a]quinolin-3-yl)methanone]"
